Test results from EP4467141A1, “PYRAZOLO-QUINOLINES AS SELECTIVE INHIBITORS OF GENOTOXIC STRESS-INDUCED IKK/NF- KB PATHWAYS FOR CANCER THERAPY” (Max-Delbrück-Centrum für Molekulare Medizin in der …, priority 2023, dated 2024).

Columns and labels:
Assay in all cases: Kinase panel study
Assay type in all cases: biochemical
Conditions in all cases: read-out: Percentage of inhibition; for inhibition at 1 µM: 1000nM; for inhibition at 10 µM: 10000nM
AMPK (A1/B2/G3) = molecular target: T1, AMPK (A1/B2/G3) (Homo sapiens, UniProt Q13131)
T1 construct: purchased Thermo Fisher Scientific
T1 sequence (Q13131 whole entry): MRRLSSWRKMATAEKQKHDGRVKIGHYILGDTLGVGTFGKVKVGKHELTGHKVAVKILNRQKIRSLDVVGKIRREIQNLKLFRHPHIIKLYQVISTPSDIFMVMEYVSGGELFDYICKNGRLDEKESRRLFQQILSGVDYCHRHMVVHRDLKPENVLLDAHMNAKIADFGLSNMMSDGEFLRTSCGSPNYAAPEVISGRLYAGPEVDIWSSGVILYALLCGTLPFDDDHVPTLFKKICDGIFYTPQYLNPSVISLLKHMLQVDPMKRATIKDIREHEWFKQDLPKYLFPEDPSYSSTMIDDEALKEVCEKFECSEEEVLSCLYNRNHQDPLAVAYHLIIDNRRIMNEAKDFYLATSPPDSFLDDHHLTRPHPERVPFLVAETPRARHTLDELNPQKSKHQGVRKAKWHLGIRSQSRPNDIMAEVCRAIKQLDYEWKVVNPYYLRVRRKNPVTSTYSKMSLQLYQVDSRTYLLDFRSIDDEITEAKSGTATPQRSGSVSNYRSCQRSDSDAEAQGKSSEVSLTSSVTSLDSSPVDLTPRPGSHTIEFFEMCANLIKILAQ
T1 sequence (O43741 whole entry partner): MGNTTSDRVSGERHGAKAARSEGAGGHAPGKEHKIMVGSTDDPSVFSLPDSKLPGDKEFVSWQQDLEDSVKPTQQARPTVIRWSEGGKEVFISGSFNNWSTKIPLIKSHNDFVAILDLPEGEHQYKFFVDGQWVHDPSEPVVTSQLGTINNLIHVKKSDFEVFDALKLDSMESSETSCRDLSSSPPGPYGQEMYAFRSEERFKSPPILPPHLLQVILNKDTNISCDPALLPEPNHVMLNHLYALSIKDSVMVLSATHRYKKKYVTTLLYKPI
T1 sequence (Q9UGI9 whole entry partner): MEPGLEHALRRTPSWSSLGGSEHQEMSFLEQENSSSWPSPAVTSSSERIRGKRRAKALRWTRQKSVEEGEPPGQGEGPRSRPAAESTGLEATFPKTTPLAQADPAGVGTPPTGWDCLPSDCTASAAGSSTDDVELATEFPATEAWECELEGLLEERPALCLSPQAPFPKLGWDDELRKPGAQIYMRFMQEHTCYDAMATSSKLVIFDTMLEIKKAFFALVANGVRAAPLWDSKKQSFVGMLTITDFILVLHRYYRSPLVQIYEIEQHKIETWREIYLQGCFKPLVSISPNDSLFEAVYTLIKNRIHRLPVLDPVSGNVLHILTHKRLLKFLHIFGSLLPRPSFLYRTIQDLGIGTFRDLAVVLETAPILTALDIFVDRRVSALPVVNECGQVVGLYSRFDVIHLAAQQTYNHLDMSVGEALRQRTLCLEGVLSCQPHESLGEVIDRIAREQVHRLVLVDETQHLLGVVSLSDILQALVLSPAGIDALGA
In short: (§1)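 Outsourced panel screen. Format: ZLyte or Adapta, run per the manufacturer's procedures. Read-out: inhibition (%) at a single dose of 10 µM or 1 µM; IC50s also generated.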

CSNK1G3 (CK1 gamma 3) = molecular target: T2, CSNK1G3 (CK1 gamma 3) (Homo sapiens, UniProt Q9Y6M4)
T2 construct: purchased Thermo Fisher Scientific
In short: as §1

MAPK7 (ERK5) = molecular target: T3, MAPK7 (ERK5) (Homo sapiens, UniProt Q13164)
T3 construct: purchased Thermo Fisher Scientific
In short: as §1

[1] = molecular target: T4, PIK3CA E542K/PIK3R1 (p11 0 alpha E542K/p85 alpha) (Homo sapiens, UniProt P42336, E542K)
T4 construct: purchased Thermo Fisher Scientific
In short: as §1

PRKCG (PKC gamma) = molecular target: T5, PRKCG (PKC gamma) (Homo sapiens, UniProt P05129)
T5 construct: purchased Thermo Fisher Scientific
In short: as §1

CDK2/cyclin A = molecular target: T6, CDK2/cyclin A (Homo sapiens, UniProt P24941)
T6 construct: purchased Thermo Fisher Scientific
In short: as §1

RET S891A = molecular target: T7, RET S891A (Homo sapiens, UniProt P07949, S891A)
T7 construct: purchased Thermo Fisher Scientific
T7 sequence (P07949 29-1114 S891A): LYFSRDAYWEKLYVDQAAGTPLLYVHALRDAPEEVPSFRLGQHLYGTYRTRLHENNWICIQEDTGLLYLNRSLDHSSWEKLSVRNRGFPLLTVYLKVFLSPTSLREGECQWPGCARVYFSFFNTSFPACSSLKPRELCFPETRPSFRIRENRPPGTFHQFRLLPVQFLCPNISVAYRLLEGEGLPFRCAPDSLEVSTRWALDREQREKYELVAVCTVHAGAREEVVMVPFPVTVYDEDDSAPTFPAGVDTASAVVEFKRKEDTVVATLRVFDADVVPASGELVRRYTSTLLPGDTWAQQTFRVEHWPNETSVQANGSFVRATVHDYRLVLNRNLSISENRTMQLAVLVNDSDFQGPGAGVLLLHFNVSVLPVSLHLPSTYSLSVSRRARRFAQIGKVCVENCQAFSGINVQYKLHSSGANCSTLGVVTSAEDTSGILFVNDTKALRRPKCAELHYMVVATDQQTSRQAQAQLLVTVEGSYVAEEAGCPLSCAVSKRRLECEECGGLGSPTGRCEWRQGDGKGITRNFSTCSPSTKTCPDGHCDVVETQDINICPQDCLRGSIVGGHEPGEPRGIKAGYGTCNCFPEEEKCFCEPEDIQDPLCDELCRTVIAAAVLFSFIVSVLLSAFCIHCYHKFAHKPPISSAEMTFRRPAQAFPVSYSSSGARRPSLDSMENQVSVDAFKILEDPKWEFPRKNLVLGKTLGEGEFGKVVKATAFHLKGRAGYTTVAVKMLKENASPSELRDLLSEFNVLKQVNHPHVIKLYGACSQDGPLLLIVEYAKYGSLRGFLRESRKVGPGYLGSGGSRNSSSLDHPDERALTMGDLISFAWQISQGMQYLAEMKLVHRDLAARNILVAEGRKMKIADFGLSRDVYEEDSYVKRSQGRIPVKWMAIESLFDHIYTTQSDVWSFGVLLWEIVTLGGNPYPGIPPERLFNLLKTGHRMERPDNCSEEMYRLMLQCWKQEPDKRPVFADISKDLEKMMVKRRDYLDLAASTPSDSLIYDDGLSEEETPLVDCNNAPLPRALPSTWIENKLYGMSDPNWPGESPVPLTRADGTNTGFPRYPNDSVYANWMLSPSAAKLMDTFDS
In short: as §1

[2] = molecular target: T8, EGFR (ErbB1) T790M C797S L858R (Homo sapiens, UniProt P00533, C797S/L858R/T790M)
T8 construct: purchased Thermo Fisher Scientific
T8 sequence (P00533 25-1210 T790M/C797S/L858R): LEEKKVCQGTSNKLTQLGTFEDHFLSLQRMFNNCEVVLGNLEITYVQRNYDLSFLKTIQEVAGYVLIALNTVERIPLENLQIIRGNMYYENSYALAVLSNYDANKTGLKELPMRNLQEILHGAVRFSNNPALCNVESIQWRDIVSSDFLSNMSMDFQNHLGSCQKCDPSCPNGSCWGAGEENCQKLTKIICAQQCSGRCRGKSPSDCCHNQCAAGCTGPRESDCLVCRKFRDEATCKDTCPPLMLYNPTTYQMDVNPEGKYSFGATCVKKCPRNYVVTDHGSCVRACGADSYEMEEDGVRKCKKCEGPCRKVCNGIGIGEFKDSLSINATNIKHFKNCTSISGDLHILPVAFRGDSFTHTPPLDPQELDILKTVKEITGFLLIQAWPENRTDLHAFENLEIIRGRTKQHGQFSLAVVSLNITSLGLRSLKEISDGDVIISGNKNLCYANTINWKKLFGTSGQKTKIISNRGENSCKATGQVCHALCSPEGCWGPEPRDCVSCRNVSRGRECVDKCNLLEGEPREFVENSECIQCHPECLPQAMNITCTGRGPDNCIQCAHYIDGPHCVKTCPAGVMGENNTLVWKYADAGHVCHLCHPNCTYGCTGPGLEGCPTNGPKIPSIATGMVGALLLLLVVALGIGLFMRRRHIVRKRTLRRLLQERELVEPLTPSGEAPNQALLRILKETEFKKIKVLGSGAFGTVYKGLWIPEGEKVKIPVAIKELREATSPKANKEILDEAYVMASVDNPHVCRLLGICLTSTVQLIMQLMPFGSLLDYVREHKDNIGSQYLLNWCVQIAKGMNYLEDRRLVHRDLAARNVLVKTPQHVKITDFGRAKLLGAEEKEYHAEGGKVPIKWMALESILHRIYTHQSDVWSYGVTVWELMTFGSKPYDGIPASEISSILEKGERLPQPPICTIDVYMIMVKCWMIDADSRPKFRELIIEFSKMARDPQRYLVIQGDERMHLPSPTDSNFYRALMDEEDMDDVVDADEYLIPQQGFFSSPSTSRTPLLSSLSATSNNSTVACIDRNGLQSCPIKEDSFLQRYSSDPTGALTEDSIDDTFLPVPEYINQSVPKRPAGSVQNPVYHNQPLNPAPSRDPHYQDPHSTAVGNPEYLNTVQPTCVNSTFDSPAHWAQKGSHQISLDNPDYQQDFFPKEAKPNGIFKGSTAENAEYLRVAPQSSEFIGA
In short: as §1

GSK3A (GSK3 alpha) = molecular target: T9, GSK3A (GSK3 alpha) (Homo sapiens, UniProt P49840)
T9 construct: purchased Thermo Fisher Scientific
T9 sequence (P49840 whole entry): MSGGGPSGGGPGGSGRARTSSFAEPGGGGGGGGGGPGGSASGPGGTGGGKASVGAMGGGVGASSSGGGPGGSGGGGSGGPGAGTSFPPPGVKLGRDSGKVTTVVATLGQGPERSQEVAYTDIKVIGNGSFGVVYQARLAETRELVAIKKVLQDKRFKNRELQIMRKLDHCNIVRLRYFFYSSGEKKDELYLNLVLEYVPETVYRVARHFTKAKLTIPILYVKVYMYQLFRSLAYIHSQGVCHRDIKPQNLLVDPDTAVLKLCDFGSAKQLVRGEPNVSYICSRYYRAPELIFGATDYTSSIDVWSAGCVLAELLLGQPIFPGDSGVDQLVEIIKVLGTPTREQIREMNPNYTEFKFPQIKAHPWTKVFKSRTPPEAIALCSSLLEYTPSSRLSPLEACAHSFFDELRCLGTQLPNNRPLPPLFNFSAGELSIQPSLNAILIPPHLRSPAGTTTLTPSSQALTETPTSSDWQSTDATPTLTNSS
In short: as §1

HCK = molecular target: T10, HCK (Homo sapiens, UniProt P08631)
T10 construct: purchased Thermo Fisher Scientific
In short: as §1

FGFR2 N549H = molecular target: T11, FGFR2 N549H (Homo sapiens, UniProt P21802, N549H)
T11 construct: purchased Thermo Fisher Scientific
In short: as §1

MST1R (RON) = molecular target: T12, MST1R (RON) (Homo sapiens, UniProt Q04912)
T12 construct: purchased Thermo Fisher Scientific
In short: as §1

CHUK (IKK alpha) = molecular target: T13, CHUK (IKK alpha) (Homo sapiens, UniProt O15111)
T13 construct: purchased Thermo Fisher Scientific
T13 sequence (O15111 1-745): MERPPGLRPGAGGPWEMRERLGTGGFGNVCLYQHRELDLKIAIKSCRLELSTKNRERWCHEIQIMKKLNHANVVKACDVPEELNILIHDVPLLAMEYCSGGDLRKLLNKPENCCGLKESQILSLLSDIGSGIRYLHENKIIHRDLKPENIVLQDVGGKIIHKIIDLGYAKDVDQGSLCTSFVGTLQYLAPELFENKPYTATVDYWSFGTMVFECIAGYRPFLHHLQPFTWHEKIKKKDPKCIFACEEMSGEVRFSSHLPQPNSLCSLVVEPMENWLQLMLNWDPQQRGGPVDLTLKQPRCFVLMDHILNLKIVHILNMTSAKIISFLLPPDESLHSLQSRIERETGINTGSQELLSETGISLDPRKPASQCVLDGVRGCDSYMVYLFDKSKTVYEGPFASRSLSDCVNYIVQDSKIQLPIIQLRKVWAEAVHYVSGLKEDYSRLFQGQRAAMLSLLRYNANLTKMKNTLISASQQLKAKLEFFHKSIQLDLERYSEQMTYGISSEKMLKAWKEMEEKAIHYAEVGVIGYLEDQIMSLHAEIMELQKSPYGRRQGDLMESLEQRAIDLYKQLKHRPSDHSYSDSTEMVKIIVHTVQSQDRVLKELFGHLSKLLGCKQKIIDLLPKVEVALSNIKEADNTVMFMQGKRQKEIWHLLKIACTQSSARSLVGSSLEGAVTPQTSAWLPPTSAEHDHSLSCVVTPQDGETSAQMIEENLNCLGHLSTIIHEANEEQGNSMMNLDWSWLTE
In short: as §1

PIK3C3 (hVPS34) = molecular target: T14, PIK3C3 (hVPS34) (Homo sapiens, UniProt Q8NEB9)
T14 construct: purchased Thermo Fisher Scientific
In short: as §1

CAMK4 (CaMKIV) = molecular target: T15, CAMK4 (CaMKIV) (Homo sapiens, UniProt Q16566)
T15 construct: purchased Thermo Fisher Scientific
In short: as §1

CAMK2D (CaMKII delta) = molecular target: T16, CAMK2D (CaMKII delta) (Homo sapiens, UniProt Q13557)
T16 construct: purchased Thermo Fisher Scientific
In short: as §1

Compound	inhibition at 1 µM (AMPK (A1/B2/G3)) [%]	inhibition at 10 µM (AMPK (A1/B2/G3)) [%]	inhibition at 1 µM (CSNK1G3 (CK1 gamma 3)) [%]	inhibition at 10 µM (CSNK1G3 (CK1 gamma 3)) [%]	inhibition at 1 µM (MAPK7 (ERK5)) [%]	inhibition at 10 µM (MAPK7 (ERK5)) [%]	inhibition at 1 µM [1] [%]	inhibition at 10 µM [1] [%]	inhibition at 1 µM (PRKCG (PKC gamma)) [%]	inhibition at 10 µM (PRKCG (PKC gamma)) [%]	inhibition at 1 µM (CDK2/cyclin A) [%]	inhibition at 10 µM (CDK2/cyclin A) [%]	inhibition at 1 µM (RET S891A) [%]	inhibition at 10 µM (RET S891A) [%]	inhibition at 1 µM [2] [%]	inhibition at 10 µM [2] [%]	inhibition at 1 µM (GSK3A (GSK3 alpha)) [%]	inhibition at 10 µM (GSK3A (GSK3 alpha)) [%]	inhibition at 1 µM (HCK) [%]	inhibition at 10 µM (HCK) [%]	other results
COc1ccc2c(c1OC)c(=O)n1c3ccc(O)cc3c3ccnc2c31 [MW01, 5-Hydroxy-10,11-dimethoxy-9H-benzo[c]indolo[3,2,1-ij][1,5]naphthyridin-9-one]	3	19	4	12	9	1	94	96	13	16	14	37	-3	30	2	12	25	55	13	22	inhibition at 1 µM (FGFR2 N549H): 0%; inhibition at 10 µM (FGFR2 N549H): 13%; inhibition at 1 µM (MST1R (RON)): 22%; inhibition at 10 µM (MST1R (RON)): 39%; inhibition at 1 µM (CHUK (IKK alpha)): 19%; inhibition at 10 µM (CHUK (IKK alpha)): 21%; inhibition at 1 µM (PIK3C3 (hVPS34)): 23%; inhibition at 10 µM (PIK3C3 (hVPS34)): 49%; inhibition at 1 µM (CAMK4 (CaMKIV)): -3%; inhibition at 10 µM (CAMK4 (CaMKIV)): 16%; inhibition at 1 µM (CAMK2D (CaMKII delta)): 13%; inhibition at 10 µM (CAMK2D (CaMKII delta)): 60%
COc1ccc2cc3c(N)nn(C(=O)c4cccc(N(C)C)c4)c3nc2c1 [MW05, (3-Amino-7-methoxypyrazolo[3,4-b]quinolin-1-yl)-[3-(dimethylamino)phenyl]methanone]	0	-6	1	9	2	-7	22	68	11	-3	12	25	-15	-18	1	2	3	18	10	9	inhibition at 1 µM (FGFR2 N549H): -4%; inhibition at 10 µM (FGFR2 N549H): -22%; inhibition at 1 µM (MST1R (RON)): -1%; inhibition at 10 µM (MST1R (RON)): -16%; inhibition at 1 µM (CHUK (IKK alpha)): 7%; inhibition at 10 µM (CHUK (IKK alpha)): 18%; inhibition at 1 µM (PIK3C3 (hVPS34)): 4%; inhibition at 10 µM (PIK3C3 (hVPS34)): 4%; inhibition at 1 µM (CAMK4 (CaMKIV)): 2%; inhibition at 10 µM (CAMK4 (CaMKIV)): -9%; inhibition at 1 µM (CAMK2D (CaMKII delta)): 3%; inhibition at 10 µM (CAMK2D (CaMKII delta)): 13%
